# Measured values: US7709526B2, “Use of cyclolignans and new cyclolignans” (Biovitrum AB, priority 2001, dated 2010)
# Read-outs that look alike come from different tables or passages of the source.
# Columns and labels:
# [1] = system: SK-MEL-28 melanoma cells; assay: Cell viability (XTT), SK-MEL-28; type: cell-based, human; details: Homo sapiens, 48 h
# Method: (§1) Cell proliferation kit II (Roche Inc.) is based on calorimetric change of the yellow tetrazolium salt XTT in orange formazan dye by the respiratory chain of viable cells (Roehm, N W, et al., J Immunol Methods 142:257-265, 1991). Cells seeded at a concentration of 5000/well in 100 μl medium in a 96-well plate were treated with different drugs in the given concentration. After 24 or 48 h the cells were incubated, according to the manufacturer's protocol, with XTT labelling mixture. After 4 h the formazan dye is quantified using a scanning multiwell spectrophotometer with a 495-nm filter. The absorbance is directly correlated with number of viable cells. The standard absorbance curve was drawn by means of untreated cells seeded at a concentration of from 1000 to 10 000 cells/well with an increasing rate of 1000 cells/well. All standards and experiments were performed in triplicates.
# (§2) 5 different types of cell lines were seeded in 96-well plates (medium volume in a well was 100 μl), at a concentration of 10,000 cells/cm^2 in Minimal Essential Medium supplemented with fetal calf serum. When the cells had reached a concentration of 65,000 cells/cm^2, they were treated with different doses of podophyllotoxin and deoxypodophyllotoxin for 48 h. Cell viability was then assayed (see above). […]
# [2] = system: HL60/Nov acute myeloid leukemia cells (cytostatic-resistant); assay: Viability of leukemia cells, HL60/Nov; type: cell-based, human; details: Homo sapiens, HL-60, 72 h, read-out: IC50 for viability of leukemia cell lines
# Method: (§3) The human chronic myeloid leukemia K562/S and K562/Vcr30 lines and the acute myeloid leukemia cell lines HL60/0 and HL60/Nov were obtained from ATCC. The K562/S and HL60/0 are wild type (non-resistant) cells, whereas K562/Vcr30 and HL60/Nov are cytostatic-resistant sublines. All leukemia cell lines were cultured in RPMI 1640 medium supplemented with 10% fetal bovine serum and with 2 mM glutamine, 1% benzyl-penicillin and streptomycin. The cells were grown in tissue culture flasks maintained at 95% air/5% CO2 atmosphere at 37° C. in a humidified incubator. For the experiments 25,000 cells were cultured in 60-mm plastic dishes or 96-well plastic plates. The experiments on leukemia cells were performed in collaboration with Associate professor Sigurd Vitols, Department of Pharmacology, Karolinska Hospital (Stockholm, Sweden).
# as §1
# (§4) The leukemia cell lines K562/S, K562/Vcr 30, HL60/0 and HL60/Nov were proven to express the IGF-1R. This was assayed by Western blotting analysis, as described in Methods and Experiment 1 and 2. The 4 leukemia cell lines were seeded in 96-well plates (medium volume in a well was 100 μl), in RPMI40 medium supplemented with fetal calf serum. After 24 h podophyllotoxin, deoxypodophyllotoxin and other derivatives were added at different concentrations for 72 h. Cell viability was then assayed (see above). IC50 values for each inhibitor and cell lines are shown below (Table 5). The results are based on 3 different experiments.
# [3] = system: cells devoid of insulin-like growth factor-1 receptors; assay: Cell death in cells devoid of IGF-1R; type: cell-based
# [4] = system: K562/S chronic myeloid leukemia cells; assay: Viability of leukemia cells, K562/S; type: cell-based, human; details: Homo sapiens, 72 h, read-out: IC50 for viability of leukemia cell lines
# Method: as §3, §1, §4
# [5] = system: rats; details: cited from earlier work
# [6] = biological target: receptor of epidermal growth factor (Homo sapiens, UniProt P00533); assay: Tyrosine phosphorylation of epidermal growth factor receptor; type: cell-based
# [7] = system: BE melanoma cells; assay: Cell viability (XTT), BE; type: cell-based; details: Homo sapiens, 48 h
# Method: as §1, §2
# [8] = system: PC-3 prostate cancer cells; assay: Cell viability (XTT), PC-3; type: cell-based; details: Homo sapiens, 48 h
# Method: as §1, §2
# [9] = system: MCF-7 breast cancer cells; assay: Cell viability (XTT), MCF-7; type: cell-based, human; details: Homo sapiens, MCF7, 48 h
# Method: as §1, §2
# [10] = Water solubility; type: physicochemical
# [11] = system: FM55 melanoma cells; assay: Cell viability (XTT), FM55; type: cell-based, human; details: Homo sapiens
# Method: as §1
# 5 different types of cell lines were seeded in 96-well plates (medium volume in a well was 100 μl), at a concentration of 10,000 cells/cm^2 in Minimal Essential Medium supplemented with fetal calf serum. When the cells had reached a concentration of 65,000 cells/cm^2, they were treated with different doses of podophyllotoxin and deoxypodophyllotoxin for 48 h. Cell viability was then assayed (see above). IC50 values for each inhibitor and cell line, calculated as the concentration, resulting in a 50% decrease in cell survival, are shown below. The results are based on 4 different experiments.
# FM55 melanoma cells were cultured in the same way as described in Experiment 3 and were treated with different doses of podophyllotoxin analogues as described in Experiment 3.
# [12] = system: receptor of platelet-derived growth factor; assay: Tyrosine phosphorylation of platelet-derived growth factor receptor; type: cell-based
# [13] = system: receptor of fibroblast growth factor; assay: Tyrosine phosphorylation of fibroblast growth factor receptor; type: cell-based
# Chain of receptor of epidermal growth factor (P00533 25-1210): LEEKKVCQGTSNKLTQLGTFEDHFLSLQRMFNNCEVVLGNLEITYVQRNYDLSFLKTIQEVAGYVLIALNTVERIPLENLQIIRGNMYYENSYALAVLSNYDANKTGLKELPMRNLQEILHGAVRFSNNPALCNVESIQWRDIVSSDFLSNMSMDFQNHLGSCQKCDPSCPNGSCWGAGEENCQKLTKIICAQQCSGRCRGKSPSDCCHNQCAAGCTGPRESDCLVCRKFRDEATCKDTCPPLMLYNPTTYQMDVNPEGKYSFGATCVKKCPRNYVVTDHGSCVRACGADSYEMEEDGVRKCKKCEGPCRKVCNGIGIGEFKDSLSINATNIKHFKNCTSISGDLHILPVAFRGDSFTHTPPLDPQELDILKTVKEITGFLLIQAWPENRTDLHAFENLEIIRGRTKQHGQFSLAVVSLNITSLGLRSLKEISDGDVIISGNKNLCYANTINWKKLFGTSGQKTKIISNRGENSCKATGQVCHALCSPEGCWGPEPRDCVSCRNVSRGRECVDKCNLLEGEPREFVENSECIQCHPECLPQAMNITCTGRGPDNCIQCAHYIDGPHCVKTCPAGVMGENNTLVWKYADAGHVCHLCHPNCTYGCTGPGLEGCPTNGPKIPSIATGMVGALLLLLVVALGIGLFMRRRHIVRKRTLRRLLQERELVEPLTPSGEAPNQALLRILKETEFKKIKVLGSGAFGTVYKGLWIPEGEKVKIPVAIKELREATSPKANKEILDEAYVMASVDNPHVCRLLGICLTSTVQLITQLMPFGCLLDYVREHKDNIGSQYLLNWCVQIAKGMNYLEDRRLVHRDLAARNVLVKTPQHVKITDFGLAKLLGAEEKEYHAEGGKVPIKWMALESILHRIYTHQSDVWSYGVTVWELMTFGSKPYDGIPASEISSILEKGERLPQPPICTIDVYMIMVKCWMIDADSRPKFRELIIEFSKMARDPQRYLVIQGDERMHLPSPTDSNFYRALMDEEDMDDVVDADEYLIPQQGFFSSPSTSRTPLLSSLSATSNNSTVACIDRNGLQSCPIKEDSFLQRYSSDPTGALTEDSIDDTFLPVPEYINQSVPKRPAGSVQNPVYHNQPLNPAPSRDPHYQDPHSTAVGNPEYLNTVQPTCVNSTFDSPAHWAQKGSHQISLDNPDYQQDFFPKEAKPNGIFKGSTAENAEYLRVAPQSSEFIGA
smiles,measurement,setting,value
"COc1cc([C@@H]2c3cc4c(cc3[C@H](O)[C@H]3COC(=O)[C@H]23)OCO4)cc(OC)c1OC [Podophyllotoxin, podophyllotoxin]",IC50,[1],50 nM
same,IC50,[2],2 nM
same,response of cells devoid of IGF-1R (in words),[3],resistant
same,IC50,[4],4 nM
same,LD50 in rats,[5],14 mg/kg
same,interference with tyrosine phosphorylation of the receptor of epidermal growth factor,[6],Neither do they interfere
same,IC50,[7],50 nM
same,IC50,[8],60 nM
same,IC50,[9],70 nM
same,water solubility,[10],100 to 200 µM
same,IC50,"[11]; FM55, Experiment 4 (Table 4), read-out: IC50 for viability of FM55 cells",50 nM
same,IC50,"[11]; FM55, melanoma, 48 h (Table 3), read-out: IC50 for cell viability",40 nM
same,interference with tyrosine phosphorylation of the receptor of platelet-derived growth factor,[12],Neither do they interfere
same,interference with tyrosine phosphorylation of the receptor of fibroblast growth factor,[13],Neither do they interfere
